# Source: the Kinase Knowledgebase extract (Sharma et al. 2016)
# Target: ROCK2 (human) (UniProt O75116)
# Assay: Inhibition of ROCK2 Kinase Activity
# Sequence of ROCK2 (human) (O75116 whole entry, looked up): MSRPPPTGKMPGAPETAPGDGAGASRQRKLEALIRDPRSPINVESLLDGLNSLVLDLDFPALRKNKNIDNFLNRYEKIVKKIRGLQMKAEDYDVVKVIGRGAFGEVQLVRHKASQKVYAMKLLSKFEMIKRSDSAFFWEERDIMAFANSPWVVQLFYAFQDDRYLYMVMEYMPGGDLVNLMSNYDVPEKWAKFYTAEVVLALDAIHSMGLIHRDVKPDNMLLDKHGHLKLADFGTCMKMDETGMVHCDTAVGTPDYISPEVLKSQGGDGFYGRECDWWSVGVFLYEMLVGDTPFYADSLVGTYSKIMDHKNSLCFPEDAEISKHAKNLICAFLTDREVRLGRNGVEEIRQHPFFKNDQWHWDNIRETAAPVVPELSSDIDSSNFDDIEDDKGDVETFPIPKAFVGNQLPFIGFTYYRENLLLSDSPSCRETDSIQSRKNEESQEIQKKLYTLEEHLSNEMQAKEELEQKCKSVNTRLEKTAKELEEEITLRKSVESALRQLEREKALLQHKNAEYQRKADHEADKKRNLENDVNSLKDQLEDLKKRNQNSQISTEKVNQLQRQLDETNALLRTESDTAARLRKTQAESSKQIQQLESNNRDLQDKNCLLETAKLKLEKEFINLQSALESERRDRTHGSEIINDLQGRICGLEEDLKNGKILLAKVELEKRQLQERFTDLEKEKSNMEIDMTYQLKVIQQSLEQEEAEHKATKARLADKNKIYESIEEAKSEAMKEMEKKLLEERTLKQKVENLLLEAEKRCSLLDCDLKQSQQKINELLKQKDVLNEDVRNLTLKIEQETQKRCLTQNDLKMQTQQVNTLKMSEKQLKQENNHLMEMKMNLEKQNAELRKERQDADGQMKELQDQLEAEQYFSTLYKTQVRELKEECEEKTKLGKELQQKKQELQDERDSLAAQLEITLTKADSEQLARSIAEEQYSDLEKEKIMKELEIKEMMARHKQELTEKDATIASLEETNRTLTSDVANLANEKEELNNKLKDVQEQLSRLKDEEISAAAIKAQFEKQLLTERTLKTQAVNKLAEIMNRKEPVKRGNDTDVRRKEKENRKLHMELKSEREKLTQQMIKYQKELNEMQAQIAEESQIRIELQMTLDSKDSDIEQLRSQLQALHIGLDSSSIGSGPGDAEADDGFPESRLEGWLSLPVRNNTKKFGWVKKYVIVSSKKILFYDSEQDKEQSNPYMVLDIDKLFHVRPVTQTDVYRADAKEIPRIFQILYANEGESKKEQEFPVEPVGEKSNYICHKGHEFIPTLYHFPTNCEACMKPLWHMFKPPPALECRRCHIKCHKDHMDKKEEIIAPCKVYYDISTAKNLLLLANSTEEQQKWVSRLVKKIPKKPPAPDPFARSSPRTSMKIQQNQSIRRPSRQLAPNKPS
row,Structure (SMILES),IC50
1,O=C(Nc1cc2cc[nH]c(=O)c2cc1Cl)[C@@H]1[C@@H]2CNC[C@@H]21,< 1 µM
2,O=C(Nc1ccc2c(=O)[nH]ccc2c1)C1CNCC1c1ccc(F)cc1 (stereo not given),< 1 µM
3,O=C(Nc1cc2cc[nH]c(=O)c2cc1Br)[C@H]1CNC[C@@H]1c1ccc(Cl)cc1,< 1 µM
4,O=C(O)C(C(=O)Nc1cc2cc[nH]c(=O)c2cc1Cl)c1ccccc1 (stereo not given),< 1 µM
5,O=C(Nc1ccc2c(=O)[nH]ccc2c1)[C@@H]1CCCNC1,< 1 µM
6,Cc1onc(-c2ccccc2)c1C(=O)Nc1cc2cc[nH]c(=O)c2cc1Cl,< 1 µM
7,O=C(Nc1cc2cc[nH]c(=O)c2cc1Cl)[C@H](O)C1CCCCC1,< 1 µM
8,O=C(Nc1cc2cc[nH]c(=O)c2cc1Cl)C1CNCC(c2ccccc2)C1 (stereo not given),< 1 µM
9,C[C@H](Oc1ccccc1)C(=O)Nc1cc2cc[nH]c(=O)c2cc1Cl,< 1 µM
10,O=C(Nc1cc2cc[nH]c(=O)c2cc1Cl)C1(c2ccc(Cl)cc2)CCNCC1,< 1 µM
11,C[C@](O)(C(=O)Nc1cc2cc[nH]c(=O)c2cc1Cl)c1ccccc1,< 1 µM
12,N[C@H](CC1CCCCC1)C(=O)Nc1cc2cc[nH]c(=O)c2cc1Cl,< 1 µM
13,C[C@H]1CNCC[C@@H]1C(=O)Nc1cc2cc[nH]c(=O)c2cc1Cl,< 1 µM
14,O=C(Nc1ccc2c(=O)[nH]cnc2c1)C(NC1CC1)c1ccccc1 (stereo not given),< 1 µM
15,CN1CCC(C(=O)Nc2cc3cc[nH]c(=O)c3cc2F)CC1,< 1 µM
16,CC1(C(=O)Nc2cc3cc[nH]c(=O)c3cc2Cl)CCN(S(C)(=O)=O)CC1,< 1 µM
17,CS(=O)(=O)c1ccc(C(=O)Nc2cc3cc[nH]c(=O)c3cc2Cl)c(Cl)c1,< 1 µM
18,O=C(Nc1ccc2c(=O)[nH]cnc2c1)C1CCCNC1 (stereo not given),< 1 µM
19,Cc1cc(S(C)(=O)=O)ccc1C(=O)Nc1cc2cc[nH]c(=O)c2cc1Cl,< 1 µM
20,CC(C)[C@@H](O)C(=O)Nc1cc2cc[nH]c(=O)c2cc1Cl,< 1 µM

row,Structure (SMILES),IC50
1,CC(C)(C)CC(=O)Nc1cc2cc[nH]c(=O)c2cc1Cl,< 1 µM
2,COc1cc2c(=O)[nH]ccc2cc1NC(=O)[C@@H](N)C1CCCCC1,< 1 µM
3,C[C@H]1CC(=O)CC[C@@H]1C(=O)Nc1cc2cc[nH]c(=O)c2cc1Cl,< 1 µM
4,O=C(Nc1cc2cc[nH]c(=O)c2cc1Cl)[C@H]1CCCCN1,< 1 µM
5,O=C(Nc1cc2cc[nH]c(=O)c2cc1Cl)C1CCN(Cc2ccccc2)CC1,< 1 µM
6,CC(NCCc1cccs1)C(=O)Nc1cc2cc[nH]c(=O)c2cc1Cl (stereo not given),< 1 µM
7,O=C(CNCC1CCCCC1)Nc1cc2cc[nH]c(=O)c2cc1Cl,< 1 µM
8,O=C(Nc1cc2cc[nH]c(=O)c2cc1Cl)[C@H]1[C@@H]2CNC[C@@H]21,< 1 µM
9,CC(C(=O)Nc1cc2cc[nH]c(=O)c2cc1Cl)N1CCSCC1 (stereo not given),< 1 µM
10,CCN(CCN(C)C)C(C(=O)Nc1cc2cc[nH]c(=O)c2cc1Cl)c1ccccc1 (stereo not given),< 1 µM
11,O=C(Nc1cc2cc[nH]c(=O)c2cc1Cl)[C@@H](O)C1CCCCC1,< 1 µM
12,C[C@@H]1CNCC[C@@H]1C(=O)Nc1cc2cc[nH]c(=O)c2cc1Cl,< 1 µM
13,O=C(Nc1cc2cc[nH]c(=O)c2cc1Cl)[C@@H]1CCCO1,< 1 µM
14,O=C(Nc1cc2cc[nH]c(=O)c2cc1Cl)[C@H](O)c1ccccc1,< 1 µM
15,N[C@H]1CC[C@@](C(=O)Nc2cc3cc[nH]c(=O)c3cc2Cl)(c2ccc(Cl)cc2)CC1,< 1 µM
16,N[C@H](Cc1ccc2ccccc2c1)C(=O)Nc1cc2cc[nH]c(=O)c2cc1Cl,< 1 µM
17,CC(C)[C@@H](N)C(=O)Nc1ccc2c(=O)[nH]cnc2c1,< 1 µM
18,O=C(Nc1cc2nc[nH]c(=O)c2cc1Cl)C(NC1CC1)c1ccccc1 (stereo not given),< 1 µM
19,CS(=O)(=O)c1ccc(C(=O)Nc2cc3cc[nH]c(=O)c3cc2Cl)cc1,< 1 µM
20,O=C(Nc1cc2cc[nH]c(=O)c2cc1Cl)C1(c2ccccc2)CCNC1 (stereo not given),< 1 µM

row,Structure (SMILES),IC50
1,O=C(Nc1cc2cc[nH]c(=O)c2cc1Cl)[C@H]1CNC[C@@H]1c1ccc(Cl)cc1,< 1 µM
2,Cc1ccccc1C(=O)Nc1cc2cc[nH]c(=O)c2cc1Cl,< 1 µM
3,O=C(Nc1cc2cc[nH]c(=O)c2cc1Cl)c1cccc(Cl)c1Cl,< 1 µM
4,COc1cc2c(=O)[nH]ccc2cc1NC(=O)[C@@H](OC)c1ccccc1,< 1 µM
5,CC(=O)OC(C(=O)Nc1cc2cc[nH]c(=O)c2cc1Cl)c1ccccc1 (stereo not given),< 1 µM
6,O=C(Nc1cc2cc[nH]c(=O)c2cc1Cl)[C@H]1CNC[C@@H]1c1cccc(Br)c1,< 1 µM
7,CSCCC(=O)Nc1cc2cc[nH]c(=O)c2cc1Cl,< 1 µM
8,O=C(Nc1cc2cc[nH]c(=O)c2cc1Cl)[C@H]1CCCNC1,< 1 µM
9,O=c1[nH]ccc2cc(NC(=O)[C@H]3CC[C@H](C(=O)O)CC3)c(Cl)cc12,< 1 µM
10,C[C@@H](Oc1ccccc1)C(=O)Nc1cc2cc[nH]c(=O)c2cc1Cl,< 1 µM
11,O=C(Nc1cc2cc[nH]c(=O)c2cc1Cl)[C@H]1CNC[C@@H]1c1ccc(F)cc1,< 1 µM
12,O=C(Nc1ccc2c(=O)[nH]ccc2c1)c1cccnc1Sc1ccccc1,< 1 µM
13,O=C(Nc1cc2cc[nH]c(=O)c2cc1Cl)c1ccc2c(c1)CCNC2,< 1 µM
14,O=C(Nc1cc2cc[nH]c(=O)c2cc1Cl)c1cccc2c1CNCC2,< 1 µM
15,O=C(Nc1cc2cc[nH]c(=O)c2cc1Cl)C1CCOCC1,< 1 µM
16,CN(C)C(C(=O)Nc1cc2nc[nH]c(=O)c2cc1Cl)c1ccccc1 (stereo not given),< 1 µM
17,N[C@H]1CCC[C@@H](C(=O)Nc2cc3cc[nH]c(=O)c3cc2Cl)C1,< 1 µM
18,C[C@H]1CN(C)CC[C@@H]1C(=O)Nc1cc2cc[nH]c(=O)c2cc1Cl,< 1 µM

# More lines, now with the values ahead:
row,IC50,Structure (SMILES)
1,< 1 µM,C[C@@](O)(C(=O)Nc1cc2cc[nH]c(=O)c2cc1Cl)c1ccccc1
2,< 1 µM,CC(C)O[C@@H](C(=O)Nc1cc2cc[nH]c(=O)c2cc1Cl)c1ccccc1
3,< 1 µM,O=C(Nc1cc2cc[nH]c(=O)c2cc1Cl)[C@H](O)c1ccccc1Cl
4,< 1 µM,O=C(Nc1cc2cc[nH]c(=O)c2cc1Cl)C1CCN(C2CCCCC2)CC1
5,< 1 µM,NCCCS(=O)(=O)c1ccc(C(=O)Nc2cc3cc[nH]c(=O)c3cc2Cl)c(Cl)c1
6,< 1 µM,CC(C)(C)C(=O)Nc1cc2cc[nH]c(=O)c2cc1Cl
7,< 1 µM,CNC(C(=O)Nc1ccc2c(=O)[nH]cnc2c1)c1ccccc1 (stereo not given)
8,< 1 µM,CC1(C(=O)Nc2cc3cc[nH]c(=O)c3cc2Cl)CCNCC1
9,< 1 µM,O=C(CNCC1CCOCC1)Nc1cc2cc[nH]c(=O)c2cc1Cl
10,< 1 µM,N[C@@H](Cc1ccccc1)C(=O)Nc1ccc2c(=O)[nH]cnc2c1
11,< 1 µM,O=C(Nc1ccc2c(=O)[nH]cnc2c1)[C@H]1CCCN1
12,< 1 µM,CN1CCC(C(=O)Nc2cc3cc[nH]c(=O)c3cc2C#N)CC1
13,< 1 µM,O=C(Nc1cc2cc[nH]c(=O)c2cc1Cl)c1cccnc1Sc1ccccc1
14,< 1 µM,CC(C)(N)C(=O)Nc1ccc2c(=O)[nH]ccc2c1
15,< 1 µM,C[C@](O)(C(=O)Nc1ccc2c(=O)[nH]cnc2c1)c1ccc(Cl)cc1
16,< 1 µM,O=C(Nc1cc2cc[nH]c(=O)c2cc1Br)[C@H]1CNC[C@@H]1c1ccccc1
17,< 1 µM,CC(C)CC(N)C(=O)Nc1ccc2c(=O)[nH]cnc2c1 (stereo not given)
18,< 1 µM,O=C(CNCC1CCCCC1)Nc1ccc2c(=O)[nH]cnc2c1
19,< 1 µM,O=C(Nc1cc2cc[nH]c(=O)c2cc1Cl)[C@H]1CNC[C@@H]1c1ccccc1
20,< 1 µM,N[C@@H](C(=O)Nc1ccc2c(=O)[nH]ccc2c1)c1ccc(Cl)cc1
21,< 1 µM,N#Cc1ccccc1C(=O)Nc1cc2cc[nH]c(=O)c2cc1Cl
22,< 1 µM,O=C(Nc1cc2cc[nH]c(=O)c2cc1Cl)c1cccc([N+](=O)[O-])c1Cl
23,< 1 µM,O=C(Nc1cc2cc[nH]c(=O)c2cc1Cl)C1(Cc2ccccc2)CCNCC1
24,< 1 µM,Cc1cc([N+](=O)[O-])ccc1C(=O)Nc1cc2cc[nH]c(=O)c2cc1Cl
25,< 1 µM,CC(C)(Oc1ccc(Cl)cc1)C(=O)Nc1ccc2c(=O)[nH]ccc2c1
26,< 1 µM,CC(C)(C(=O)Nc1cc2cc[nH]c(=O)c2cc1Cl)c1ccccc1

row,IC50,Structure (SMILES)
1,< 1 µM,COC(=O)C[C@@H](C)C(=O)Nc1cc2cc[nH]c(=O)c2cc1Cl
2,< 1 µM,N[C@H](Cc1ccncc1)C(=O)Nc1cc2cc[nH]c(=O)c2cc1Cl
3,< 1 µM,CC(C)C(C(=O)Nc1cc2cc[nH]c(=O)c2cc1Cl)c1ccc(Cl)cc1 (stereo not given)
4,< 1 µM,O=C(Nc1cc2cc[nH]c(=O)c2cc1Cl)C1CCN(Cc2ccncc2)CC1
5,< 1 µM,O=C(Nc1cc2cc[nH]c(=O)c2cc1Cl)[C@@H]1CCCNC1
6,< 1 µM,N#CCC(=O)Nc1cc2cc[nH]c(=O)c2cc1Cl
7,< 1 µM,CN1CCN(CC(=O)Nc2cc3cc[nH]c(=O)c3cc2Cl)CC1
8,< 1 µM,CN(C)CC(=O)Nc1ccc2c(=O)[nH]ccc2c1
9,< 1 µM,O=C(CNCC1CC1)Nc1ccc2c(=O)[nH]cnc2c1
10,< 1 µM,N[C@H]1CC[C@](C(=O)Nc2cc3cc[nH]c(=O)c3cc2Cl)(c2ccc(Cl)cc2)CC1
11,< 1 µM,O=C(Nc1cc2cc[nH]c(=O)c2cc1Cl)C(c1ccccc1)N1CCC(O)CC1 (stereo not given)
12,< 1 µM,CNC(C)(C)C(=O)Nc1ccc2c(=O)[nH]ccc2c1
13,< 1 µM,COc1cc2c(=O)[nH]ccc2cc1NC(=O)[C@H](N)C1CCCCC1
14,< 1 µM,O=C(Nc1cc2cc[nH]c(=O)c2cc1Cl)[C@H]1CNCC[C@@H]1c1ccccc1
15,< 1 µM,O=C(Nc1cc2cc[nH]c(=O)c2cc1Cl)c1cc([N+](=O)[O-])ccc1Cl
16,< 1 µM,O=C(Nc1cc2cc[nH]c(=O)c2cc1Cl)c1cccc2c1CCNC2
17,< 1 µM,Cc1cc(S(=O)(=O)N2CCNCC2)ccc1C(=O)Nc1cc2cc[nH]c(=O)c2cc1Cl
18,< 1 µM,COc1cccc(CC(=O)Nc2ccc3c(=O)[nH]ccc3c2)c1
19,< 1 µM,O=C(COc1ccc(Cl)cc1)Nc1ccc2c(=O)[nH]ccc2c1
20,< 1 µM,O=c1[nH]ccc2cc(NC(=O)[C@H]3CC[C@@H](O)CC3)c(Cl)cc12
21,< 1 µM,N[C@H]1C[C@@H](C(=O)Nc2cc3cc[nH]c(=O)c3cc2Cl)C1
22,< 1 µM,O=C(Nc1cc2cc[nH]c(=O)c2cc1Cl)C(O)c1ccccc1 (stereo not given)
23,< 1 µM,N[C@H](Cc1ccccc1)C(=O)Nc1ccc2c(=O)[nH]cnc2c1
24,< 1 µM,O=C(Nc1cc2cc[nH]c(=O)c2cc1Cl)c1ccc(Cl)cc1Cl
25,< 1 µM,NC(C(=O)Nc1ccc2c(=O)[nH]cnc2c1)c1ccccc1 (stereo not given)
26,< 1 µM,O=C(Nc1ccc2c(=O)[nH]ccc2c1)[C@H]1CCCNC1
